Experimental data taken from patent publication US6461997B1, “Triazole sulfones having herbicidal activity” (Monsanto Technology LLC, priority 1999, dated 2002).

Tested on: ECHCG (barnyardgrass)
Assay: Pre-emergence herbicidal activity, warm season
Format: in vivo, Echinochloa crus-galli
Conditions: GR80 = lowest tested rate (300, 100, 30, 10 g/ha) with 80% or greater inhibition; approx. 14 days after treating; 30/21° C.
Method: (§1) Tables 5 to 8 summarize results of tests conducted as described below to determine the pre-emergence herbicidal activity, in the form of a GR80 value, of illustrative compounds of this invention. […] Compounds of the invention were typically applied at rates of 300, 100, 30, and 10 g/ha. Where herbicidal activity was evident but 80% inhibition was not achieved at the highest rate tested, an asterisk (*) is shown in the following tables.
(§2) The pre-emergence tests were conducted by the following procedure. Topsoil was sieved to pass through a 1.27 cm screen. Fertilizer was added to the topsoil and the mixture was then sterilized by heating. The topsoil mixture was placed in a pot and compacted to a depth of 1.0 to 1.25 cm from the top of the pot. Seeds of each of several monocotyledonous and dicotyledonous annual plant species were placed on top of the soil. Additional soil was subsequently placed over the seeds to level-fill the pot. A known amount of each test compound dissolved or suspended in an appropriate organic solvent was diluted with a 50:50 mix of acetone and water and applied to the surface of the soil. After treatment the plants were placed in a greenhouse where they received 0.64 cm of overhead irrigation. All subsequent watering consisted of a light overhead mist and/or subirrigation as needed for germination and growth. Tables 5 and 6 below relate to warm season plant species which were placed after pre-emergence treatment in a greenhouse with a 30/21° C. day/night temperature regime. Tables 7 and 8 below relates to cool season plant species placed after pre-emergence treatment in a greenhouse or growth chamber with an 18/13° C. day/night temperature regime.
(§3) Approximately 14 days after planting and treating, the plants were observed and herbicidal efficacy recorded as percent inhibition by comparison with untreated plants.
(§4) The plant species usually regarded as weeds which were utilized in the tests are identified in the tables below according to the following legend, in which “d” indicates a dicotyledonous species and “m” a monocotyledonous species. All monocotyledonous species included in the tests herein are grasses.

| SMILES | Pre-emergence activity (GR80) ECHCG |
| --- | --- |
| CN(C(=O)n1cnc(S(=O)(=O)C(F)(F)C(F)(F)Br)n1)C1CCCCC1 [Example 79] | 300 g/ha |

Tested on: AGSST (creeping bentgrass)
Assay: Pre-emergence herbicidal activity, cool season
Format: in vivo, Agrostis stolonifera
Conditions: GR80 = lowest tested rate (300, 100, 30, 10 g/ha) with 80% or greater inhibition; approx. 14 days after treating; 18/13° C.
Method: as §1, §2, §3, §4

| SMILES | Pre-emergence activity (GR80) AGSST |
| --- | --- |
| C=CCN(C)C(=O)n1cnc(S(=O)(=O)C(F)(F)C(F)(F)Br)n1 [Example 77] | 300 g/ha |
| CCSC(F)(F)S(=O)(=O)c1ncn(C(=O)N(C)c2ccccc2)n1 [Example 50] | 30 g/ha |
| CN(C(=O)n1cnc(S(=O)(=O)C(F)(F)C(F)(F)Br)n1)C1CCCCC1 [Example 79] | 100 g/ha |
| COCCN(C)C(=O)n1cnc(S(=O)(=O)C(F)F)n1 [Example 29] | 300 g/ha |
| C#CCN(C)C(=O)n1cnc(S(=O)(=O)C(F)(F)Br)n1 [Example 42] | 100 g/ha |
| C=CCN(C)C(=O)n1cnc(S(=O)(=O)C(F)(F)SCC)n1 [Example 53] | 300 g/ha |

Tested on: POLCO (wild buckwheat)
Assay: Pre-emergence herbicidal activity, cool season
Format: in vivo, Polygonum convolvulus
Conditions: lowest tested rate with 80% or greater inhibition; rates 300, 100, 30, 10 g/ha; about 14 days
Method: as §1, §2, §3, §4

| SMILES | Pre-emergence activity GR80, POLCO |
| --- | --- |
| CN(C(=O)n1cnc(S(=O)(=O)C(F)(F)C(F)(F)Br)n1)c1ccccc1 [Example 74] | [empty] |
| O=C(N1CCOCC1)n1cnc(S(=O)(=O)C(F)(F)C(F)(F)Br)n1 [Example 72] | 300 g/ha |
| C=CCN(C)C(=O)n1cnc(S(=O)(=O)C(F)(F)C(F)(F)Br)n1 [Example 77] | [empty] |
| CCSC(F)(F)S(=O)(=O)c1ncn(C(=O)N(C)c2ccccc2)n1 [Example 50] | [empty] |
| CN(C(=O)n1cnc(S(=O)(=O)C(F)(F)C(F)(F)Br)n1)C1CCCCC1 [Example 79] | 300 g/ha |
| COCCN(C)C(=O)n1cnc(S(=O)(=O)C(F)F)n1 [Example 29] | [empty] |
| C#CCN(C)C(=O)n1cnc(S(=O)(=O)C(F)(F)Br)n1 [Example 42] | [empty] |
| C=CCN(C)C(=O)n1cnc(S(=O)(=O)C(F)(F)SCC)n1 [Example 53] | [empty] |

Tested on: VERPE (creeping speedwell)
Assay: Pre-emergence herbicidal activity, cool season
Format: in vivo, Veronica persicaria
Conditions: lowest tested rate with 80% or greater inhibition; rates 300, 100, 30, 10 g/ha; about 14 days
Method: as §1, §2, §3, §4

| SMILES | Pre-emergence activity GR80, VERPE |
| --- | --- |
| CN(C(=O)n1cnc(S(=O)(=O)C(F)(F)C(F)(F)Br)n1)c1ccccc1 [Example 74] | 300 g/ha |
| O=C(N1CCOCC1)n1cnc(S(=O)(=O)C(F)(F)C(F)(F)Br)n1 [Example 72] | [empty] |
| C=CCN(C)C(=O)n1cnc(S(=O)(=O)C(F)(F)C(F)(F)Br)n1 [Example 77] | [empty] |
| CCSC(F)(F)S(=O)(=O)c1ncn(C(=O)N(C)c2ccccc2)n1 [Example 50] | [empty] |
| CN(C(=O)n1cnc(S(=O)(=O)C(F)(F)C(F)(F)Br)n1)C1CCCCC1 [Example 79] | 30 g/ha |
| COCCN(C)C(=O)n1cnc(S(=O)(=O)C(F)F)n1 [Example 29] | 100 g/ha |
| C#CCN(C)C(=O)n1cnc(S(=O)(=O)C(F)(F)Br)n1 [Example 42] | [empty] |
| C=CCN(C)C(=O)n1cnc(S(=O)(=O)C(F)(F)SCC)n1 [Example 53] | [empty] |

Tested on: SINAR (wild mustard)
Assay: Pre-emergence herbicidal activity, cool season
Format: in vivo, Sinapis arvensis
Conditions: lowest tested rate with 80% or greater inhibition; rates 300, 100, 30, 10 g/ha; about 14 days
Method: as §1, §2, §3, §4

| SMILES | Pre-emergence activity GR80, SINAR |
| --- | --- |
| CN(C(=O)n1cnc(S(=O)(=O)C(F)(F)C(F)(F)Br)n1)c1ccccc1 [Example 74] | 300 g/ha |
| O=C(N1CCOCC1)n1cnc(S(=O)(=O)C(F)(F)C(F)(F)Br)n1 [Example 72] | [empty] |
| C=CCN(C)C(=O)n1cnc(S(=O)(=O)C(F)(F)C(F)(F)Br)n1 [Example 77] | [empty] |
| CCSC(F)(F)S(=O)(=O)c1ncn(C(=O)N(C)c2ccccc2)n1 [Example 50] | [empty] |
| CN(C(=O)n1cnc(S(=O)(=O)C(F)(F)C(F)(F)Br)n1)C1CCCCC1 [Example 79] | 300 g/ha |
| COCCN(C)C(=O)n1cnc(S(=O)(=O)C(F)F)n1 [Example 29] | 300 g/ha |
| C#CCN(C)C(=O)n1cnc(S(=O)(=O)C(F)(F)Br)n1 [Example 42] | [empty] |
| C=CCN(C)C(=O)n1cnc(S(=O)(=O)C(F)(F)SCC)n1 [Example 53] | [empty] |

Tested on: SASKR (russian thistle)
Assay: Pre-emergence herbicidal activity, cool season
Format: in vivo, Salsola kali
Conditions: lowest tested rate with 80% or greater inhibition; rates 300, 100, 30, 10 g/ha; about 14 days
Method: as §1, §2, §3, §4

| SMILES | Pre-emergence activity GR80, SASKR |
| --- | --- |
| CN(C(=O)n1cnc(S(=O)(=O)C(F)(F)C(F)(F)Br)n1)c1ccccc1 [Example 74] | 300 g/ha |
| O=C(N1CCOCC1)n1cnc(S(=O)(=O)C(F)(F)C(F)(F)Br)n1 [Example 72] | [empty] |
| C=CCN(C)C(=O)n1cnc(S(=O)(=O)C(F)(F)C(F)(F)Br)n1 [Example 77] | [empty] |
| CCSC(F)(F)S(=O)(=O)c1ncn(C(=O)N(C)c2ccccc2)n1 [Example 50] | [empty] |
| CN(C(=O)n1cnc(S(=O)(=O)C(F)(F)C(F)(F)Br)n1)C1CCCCC1 [Example 79] | [empty] |
| COCCN(C)C(=O)n1cnc(S(=O)(=O)C(F)F)n1 [Example 29] | 300 g/ha |
| C#CCN(C)C(=O)n1cnc(S(=O)(=O)C(F)(F)Br)n1 [Example 42] | [empty] |
| C=CCN(C)C(=O)n1cnc(S(=O)(=O)C(F)(F)SCC)n1 [Example 53] | [empty] |

Tested on: GALAP (catchweed bedstraw)
Assay: Pre-emergence herbicidal activity, cool season
Format: in vivo, Galium aparine
Conditions: lowest tested rate with 80% or greater inhibition; rates 300, 100, 30, 10 g/ha; about 14 days
Method: as §1, §2, §3, §4

| SMILES | Pre-emergence activity GR80, GALAP |
| --- | --- |
| CN(C(=O)n1cnc(S(=O)(=O)C(F)(F)C(F)(F)Br)n1)c1ccccc1 [Example 74] | [empty] |
| O=C(N1CCOCC1)n1cnc(S(=O)(=O)C(F)(F)C(F)(F)Br)n1 [Example 72] | [empty] |
| C=CCN(C)C(=O)n1cnc(S(=O)(=O)C(F)(F)C(F)(F)Br)n1 [Example 77] | [empty] |
| CCSC(F)(F)S(=O)(=O)c1ncn(C(=O)N(C)c2ccccc2)n1 [Example 50] | 100 g/ha |
| CN(C(=O)n1cnc(S(=O)(=O)C(F)(F)C(F)(F)Br)n1)C1CCCCC1 [Example 79] | 300 g/ha |
| COCCN(C)C(=O)n1cnc(S(=O)(=O)C(F)F)n1 [Example 29] | [empty] |
| C#CCN(C)C(=O)n1cnc(S(=O)(=O)C(F)(F)Br)n1 [Example 42] | 300 g/ha |
| C=CCN(C)C(=O)n1cnc(S(=O)(=O)C(F)(F)SCC)n1 [Example 53] | 300 g/ha |

Tested on: STEME (common chickweed)
Assay: Pre-emergence herbicidal activity, cool season
Format: in vivo, Stellaria media
Conditions: lowest tested rate with 80% or greater inhibition; rates 300, 100, 30, 10 g/ha; about 14 days
Method: as §1, §2, §3, §4

| SMILES | Pre-emergence activity GR80, STEME |
| --- | --- |
| CN(C(=O)n1cnc(S(=O)(=O)C(F)(F)C(F)(F)Br)n1)c1ccccc1 [Example 74] | [empty] |
| O=C(N1CCOCC1)n1cnc(S(=O)(=O)C(F)(F)C(F)(F)Br)n1 [Example 72] | [empty] |
| C=CCN(C)C(=O)n1cnc(S(=O)(=O)C(F)(F)C(F)(F)Br)n1 [Example 77] | [empty] |
| CCSC(F)(F)S(=O)(=O)c1ncn(C(=O)N(C)c2ccccc2)n1 [Example 50] | 300 g/ha |
| CN(C(=O)n1cnc(S(=O)(=O)C(F)(F)C(F)(F)Br)n1)C1CCCCC1 [Example 79] | 100 g/ha |
| COCCN(C)C(=O)n1cnc(S(=O)(=O)C(F)F)n1 [Example 29] | 300 g/ha |
| C#CCN(C)C(=O)n1cnc(S(=O)(=O)C(F)(F)Br)n1 [Example 42] | [empty] |
| C=CCN(C)C(=O)n1cnc(S(=O)(=O)C(F)(F)SCC)n1 [Example 53] | [empty] |

Tested on: SETVI (green foxtail)
Assay: Pre-emergence herbicidal activity, cool season
Format: in vivo, Setaria viridis
Conditions: GR80 = lowest tested rate (300, 100, 30, 10 g/ha) with 80% or greater inhibition; approx. 14 days after treating; 18/13° C.
Method: as §1, §2, §3, §4

| SMILES | Pre-emergence activity (GR80) SETVI |
| --- | --- |
| CN(C(=O)n1cnc(S(=O)(=O)C(F)(F)C(F)(F)Br)n1)C1CCCCC1 [Example 79] | 300 g/ha |
| C=CCN(C)C(=O)n1cnc(S(=O)(=O)C(F)(F)SCC)n1 [Example 53] | 300 g/ha |

Tested on: PANMI (wild proso millet)
Assay: Pre-emergence herbicidal activity, warm season
Format: in vivo, Panicum miliaceum
Conditions: GR80 = lowest tested rate (300, 100, 30, 10 g/ha) with 80% or greater inhibition; approx. 14 days after treating; 30/21° C.
Method: as §1, §2, §3, §4

| SMILES | Pre-emergence activity (GR80) PANMI |
| --- | --- |
| CN(C(=O)n1cnc(S(=O)(=O)C(F)(F)C(F)(F)Br)n1)c1ccccc1 [Example 74] | 300 g/ha |
| CCSC(F)(F)S(=O)(=O)c1ncn(C(=O)N(C)c2ccccc2)n1 [Example 50] | 300 g/ha |
| CN(C(=O)n1cnc(S(=O)(=O)C(F)(F)C(F)(F)Br)n1)C1CCCCC1 [Example 79] | 300 g/ha |
| C#CCN(C)C(=O)n1cnc(S(=O)(=O)C(F)(F)Br)n1 [Example 42] | 300 g/ha |
| C=CCN(C)C(=O)n1cnc(S(=O)(=O)C(F)(F)SCC)n1 [Example 53] | 300 g/ha |

Tested on: LAMPU (purple deadnettle)
Assay: Pre-emergence herbicidal activity, cool season
Format: in vivo, Lamium purpureum
Conditions: lowest tested rate with 80% or greater inhibition; rates 300, 100, 30, 10 g/ha; about 14 days
Method: as §1, §2, §3, §4

| SMILES | Pre-emergence activity GR80, LAMPU |
| --- | --- |
| CN(C(=O)n1cnc(S(=O)(=O)C(F)(F)C(F)(F)Br)n1)c1ccccc1 [Example 74] | 300 g/ha |
| O=C(N1CCOCC1)n1cnc(S(=O)(=O)C(F)(F)C(F)(F)Br)n1 [Example 72] | [empty] |
| C=CCN(C)C(=O)n1cnc(S(=O)(=O)C(F)(F)C(F)(F)Br)n1 [Example 77] | [empty] |
| CCSC(F)(F)S(=O)(=O)c1ncn(C(=O)N(C)c2ccccc2)n1 [Example 50] | [empty] |
| CN(C(=O)n1cnc(S(=O)(=O)C(F)(F)C(F)(F)Br)n1)C1CCCCC1 [Example 79] | 100 g/ha |
| COCCN(C)C(=O)n1cnc(S(=O)(=O)C(F)F)n1 [Example 29] | 300 g/ha |
| C#CCN(C)C(=O)n1cnc(S(=O)(=O)C(F)(F)Br)n1 [Example 42] | [empty] |
| C=CCN(C)C(=O)n1cnc(S(=O)(=O)C(F)(F)SCC)n1 [Example 53] | [empty] |
